# Columns and labels:
# CX3CR1 [1] = biological target: T1, CX3CR1 (Homo sapiens (Human), UniProt P49238); assay: CX3CR1-dependent cell adhesion to recombinant CX3CL1 in human whole blood under flow; type: cell-based; conditions: recombinant full-length CX3CL1
# Protocol: (§1) Adhesion of cells to recombinant full-length human CX3CL1 was monitored under physiological flow using a Cellix VenaFlux microfluidics platform with connected fluorescent microscope and camera, and using Vena8 Fluoro+ Biochips (Cellix) pre-coated with anti-His monoclonal antibody (25 μg/mL; R&D Systems) and His-tagged full-length CX3CL1 (15 μg/mL; R&D Systems).
# CX3CR1-Dependent Cell Adhesion to Recombinant CX3CL1 in Human Whole Blood Under Flow
# Human whole blood from healthy volunteers was collected using heparin as anti-coagulant. […] Compound stocks or DMSO vehicle were added to 0.5 or 1.0 ml aliquots of blood such that the final concentration of DMSO was 0.1%, corresponding to a 1000-fold dilution of compound stock. Blood was pre-incubated with compound at room temperature for 60 minutes with gentle shaking. DiOC6 (Invitrogen, 5 μM) or Hoechst 33342 (Invitrogen, 300 μM) dye was subsequently added to fluorescently label cells and enable their detection during the flow adhesion assay. To monitor adhesion, blood was allowed to flow through the channels of a Vena8 Fluoro+ biochip at 2.25 dynes per cm^2 for 3-6 minutes prior to capturing images for quantification. Fluorescent cells adhering to the channels were counted and the mean and/or total count across five to six images in each channel were used for calculating concentration-response curves.
# CX3CR1 [2] = biological target: T1, CX3CR1; assay: hCX3CR1 [125I]-CX3CL1 displacement binding (SPA); conditions: CHO-hCX3CR1 membranes, [125I]-CX3CL1, SPA beads
# Protocol: hCX3CR1 [^125I]-CX3CL1 Displacement Binding (SPA)
# CHO-hCX3CR1 membranes (3 μg per well) together with […] [^125I]-CX3CL1 (Perkin Elmer) and different concentrations of competitor compound were incubated together with 400 μg/well WGA coated PVT SPA beads (Perkin Elmer) in 50 mM HEPES (pH 7.4), 10 mM MgCl2, 1 mM EDTA and 0.1% Gelatin in a Greiner polystyrene flat-bottom 384-well plate. The plate was incubated for 20 h at room temperature before the radioactivity was measured using a MicroBeta Trilux reader (PerkinElmer). The DMSO concentration was held constant at 1%.
# CX3CR1 [3] = biological target: T1, CX3CR1; assay: hCX3CR1 [3H]-AZD8797 competitive binding assay (filter); conditions: CHO-hCX3CR1 membranes, 2 nM [3H]-AZD8797
# Outline: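 CHO-hCX3CR1 membranes (9 μg/well) were incubated 2 h at room temperature with 2 nM [3H]-AZD8797 and varying competitor concentrations. Buffer: 25 mM HEPES pH 7.4, 10 mM MgCl2, 1 mM CaCl2, 0.5% BSA, 1% DMSO. Bound ligand was collected by vacuum filtration, washed in ice-cold buffer with 500 mM NaCl, and counted by scintillation.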
# CX3CR1 [4] = biological target: T1, CX3CR1; assay: Flow adhesion for human B-lymphocyte cell line RPMI-8226; type: cell-based; conditions: RPMI-8226 cells under flow, recombinant full-length CX3CL1
# Protocol: as §1
# Flow Adhesion for Human B-Lymphocyte Cell Line RPMI-8226
# Cells were cultured in RPMI 1640 medium with GlutaMAX and 20% FBS (HyClone, Perbio). Before each experiment, cells were centrifuged at 320 g and resuspended to 5×10^6 cells per ml in RPMI 1640 with 1% FBS. Cells were pre-incubated for 15 minutes at room temperature with CX3CR1 antagonist in an 8-step 3-fold dilution series starting at 3.3 μM. DMSO concentration was kept constant for all antagonist concentrations at 0.1%. Cells were pumped through the channels of the Vena8 Fluoro+ biochip at 0.5 dynes per cm2 for 3 m prior to capturing microscope images for quantification. Cells adhering to channels were counted and the mean values across five images in each channel were used for calculating the concentration-response curves.
# CX3CR1 [5] = biological target: T1, CX3CR1; assay: PathHunter β-arrestin recruitment assay; type: cell-based; conditions: CHO-K1 CX3CR1 β-Arrestin cells, with CX3CL1
# Protocol: PathHunter β-Arrestin Recruitment Assay
# β-Arrestin recruitment was measured using the PathHunter® eXpress enzyme fragment complementation assay (DiscoverX #93-0956E2). 3500 CHO-K1 CX3CR1 β-Arrestin cells/well in Opti-MEM were incubated together with different concentrations of CX3CL1 and antagonistic compound in a Greiner tissue culture treated flat-bottom 384-well plate. After 90 min of incubation at 37° C., the detection reagent supplied in the kit was added and incubation continued for 1 h at room temperature, before reading the luminescence with a Victor2 luminescence plate reader (PerkinElmer). The final DMSO concentration was held constant at 1%.
# T1 sequence (P49238 whole entry): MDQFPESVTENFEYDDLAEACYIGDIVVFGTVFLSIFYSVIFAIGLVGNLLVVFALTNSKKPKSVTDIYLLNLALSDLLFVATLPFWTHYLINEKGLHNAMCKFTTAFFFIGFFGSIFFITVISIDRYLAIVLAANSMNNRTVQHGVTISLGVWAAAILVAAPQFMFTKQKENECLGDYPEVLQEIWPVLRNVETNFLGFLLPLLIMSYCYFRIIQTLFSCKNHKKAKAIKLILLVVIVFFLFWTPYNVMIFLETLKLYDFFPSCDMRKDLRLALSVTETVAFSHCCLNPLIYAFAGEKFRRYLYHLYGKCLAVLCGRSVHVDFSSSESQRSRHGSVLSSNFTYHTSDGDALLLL
IC50 (CX3CR1 [1]) [nM],IC50 (CX3CR1 [2]) [nM],IC50 (CX3CR1 [3]) [nM],IC50 (CX3CR1 [4]) [nM],EC50 (CX3CR1 [5]) [nM],SMILES
233,180,23,11,,"CC(C)C[C@H](CO)Nc1nc(C[C@@H](C)c2ccccc2F)nc(NS(C)(=O)=O)n1 (single isomer, unassigned) [Example 146, N-(4-((R*)-2-(2-Fluorophenyl)propyl)-6-(((R)-1-hydroxy-4-methylpentan-2-yl)amino)-1,3,5-triazin-2-yl)methanesulfonamide]"
3080,470,49,14,,"COc1ccc([C@H](C)Cc2nc(N[C@@H](CO)CC(C)C)nc(NS(C)(=O)=O)n2)c(F)c1 (single isomer, unassigned) [Example 81, N-(4-((R*)-2-(2-Fluoro-4-methoxyphenyl)propyl)-6-(((R)-1-hydroxy-4-methylpentan-2-yl)amino)-1,3,5-triazin-2-yl)methanesulfonamide]"
543,637,129,28,,"CC(C)C[C@H](CO)Nc1nc(C[C@H](C)c2ccccc2F)nc(NS(C)(=O)=O)n1 (single isomer, unassigned) [Example 145, N-(4-((S*)-2-(2-Fluorophenyl)propyl)-6-(((R)-1-hydroxy-4-methylpentan-2-yl)amino)-1,3,5-triazin-2-yl)methanesulfonamide]"
326,484,37,37,,"CC(C)C[C@H](CO)Nc1nc(C[C@@H](C)c2ccccc2)nc(NS(C)(=O)=O)n1 (single isomer, unassigned) [Example 148, N-(4-(((R)-1-Hydroxy-4-methylpentan-2-yl)amino)-6-((R*)-2-phenylpropyl)-1,3,5-triazin-2-yl)methanesulfonamide]"
150,104,13,6,43,"CC(C)C[C@H](CO)Nc1nc(C[C@@H](C)c2cccc(F)c2F)nc(NS(C)(=O)=O)n1 (single isomer, unassigned) [Example 144, N-(4-((R*)-2-(2,3-Difluorophenyl)propyl)-6-(((R)-1-hydroxy-4-methylpentan-2-yl)amino)-1,3,5-triazin-2-yl)methanesulfonamide]"

# The next lines start with the compound.
SMILES,IC50 (CX3CR1 [1]) [nM],IC50 (CX3CR1 [2]) [nM],IC50 (CX3CR1 [3]) [nM],IC50 (CX3CR1 [4]) [nM],EC50 (CX3CR1 [5]) [nM]
"COc1ncc([C@H](C)Cc2nc(N[C@@H](CO)CC(C)C)nc(NS(C)(=O)=O)n2)cc1F (single isomer, unassigned) [Example 7, N-(4-((R*)-2-(5-Fluoro-6-methoxypyridin-3-yl)propyl)-6-(((R)-1-hydroxy-4-methylpentan-2-yl)amino)-1,3,5-triazin-2-yl)methanesulfonamide]",2460,> 10000,55,128,400
"COc1ccc([C@H](C)Cc2nc(N[C@@H](CO)CC(C)C)nc(NS(C)(=O)=O)n2)c(F)n1 (single isomer, unassigned) [Example 85, N-(4-((R*)-2-(2-Fluoro-6-methoxypyridin-3-yl)propyl)-6-(((R)-1-hydroxy-4-methylpentan-2-yl)amino)-1,3,5-triazin-2-yl)methanesulfonamide]",691,,18,,50
"COc1cc(F)c([C@H](C)Cc2nc(N[C@@H](CO)CC(C)C)nc(NS(C)(=O)=O)n2)cn1 (single isomer, unassigned) [Example 46, N-(4-((R*)-2-(4-Fluoro-6-methoxypyridin-3-yl)propyl)-6-(((R)-1-hydroxy-4-methylpentan-2-yl)amino)-1,3,5-triazin-2-yl)methanesulfonamide]",1400,,52,,100
"COc1ccc([C@H](C)Cc2nc(N[C@@H](CO)CC(C)C)nc(NS(C)(=O)=O)n2)cn1 (single isomer, unassigned) [Example 76, N-(4-(((R)-1-Hydroxy-4-methylpentan-2-yl)amino)-6-((R*)-2-(6-methoxypyridin-3-yl)propyl)-1,3,5-triazin-2-yl)methanesulfonamide]",,886,48,158,
"CC(C)C[C@H](CO)Nc1nc(C[C@@H](C)c2cnc(C3CC3)nc2)nc(NS(C)(=O)=O)n1 (single isomer, unassigned) [Example 12, N-(4-((R*)-2-(2-Cyclopropylpyrimidin-5-yl)propyl)-6-(((R)-1-hydroxy-4-methylpentan-2-yl)amino)-1,3,5-triazin-2-yl)methanesulfonamide]",,1860,176,255,
"CC(C)C[C@H](CO)Nc1nc(C[C@@H](C)c2ccc(F)cc2)nc(NS(C)(=O)=O)n1 (single isomer, unassigned) [Example 79, N-(4-((R*)-2-(4-Fluorophenyl)propyl)-6-(((R)-1-hydroxy-4-methylpentan-2-yl)amino)-1,3,5-triazin-2-yl)methanesulfonamide]",,2470,198,54,
